In the NIST ThermoML archive (doi:10.1016/j.jct.2016.09.008):
Numbers after ± are expanded uncertainties.

Key:
[1] = refractive index (Na D-line) (dimensionless); conditions: 298.15 K; 101.33 kPa; Liquid; Standard Abbe refractometry
[2] = wn = mass fraction of the nth substance listed; conditions: 298.15 K; 101.1 kPa; Liquid; Vibrating tube method; w1 = 0.85
[3] = refractive index (Na D-line) (dimensionless); wn = mass fraction of the nth substance listed; conditions: 298.15 K; 101.1 kPa; Liquid; Standard Abbe refractometry; w1 = 0.85
[4] = 298.15 K; 101.33 kPa; Liquid; Vibrating tube method

Row | refractive index [1] | mass density [2] [kg/m3] | refractive index [3] | mass density [4] [kg/m3] | SMILES
1 | 1.3326 ± 0.0005 |  |  |  | O [water]
2 |  | 1682.8 ± 2.5 | 1.432 ± 0.0005 |  | O=P(O)(O)O [phosphoric acid] + O
3 | 1.419 ± 0.0005 |  |  | 1198.3 ± 2.4 | CC1COC(=O)O1 (stereo not given) [4-methyl-1,3-dioxolan-2-one]
